Experimental data: patent US20160159814A1, “GLYCINE TRANSPORTER INHIBITOR” (TAISHO PHARMACEUTICAL CO., LTD., priority 2013, published 2016)

Molecular target: T1, human type 1 glycine transporter (GlyT1) (Homo sapiens, UniProt P48067)
T1 construct: T98G cells (glioma cells) expressing human type 1 glycine transporter (GlyT1) were used; endogenous in cells; host or cells: T98G cells (human glioma cells)
T1 sequence (P48067 1-706): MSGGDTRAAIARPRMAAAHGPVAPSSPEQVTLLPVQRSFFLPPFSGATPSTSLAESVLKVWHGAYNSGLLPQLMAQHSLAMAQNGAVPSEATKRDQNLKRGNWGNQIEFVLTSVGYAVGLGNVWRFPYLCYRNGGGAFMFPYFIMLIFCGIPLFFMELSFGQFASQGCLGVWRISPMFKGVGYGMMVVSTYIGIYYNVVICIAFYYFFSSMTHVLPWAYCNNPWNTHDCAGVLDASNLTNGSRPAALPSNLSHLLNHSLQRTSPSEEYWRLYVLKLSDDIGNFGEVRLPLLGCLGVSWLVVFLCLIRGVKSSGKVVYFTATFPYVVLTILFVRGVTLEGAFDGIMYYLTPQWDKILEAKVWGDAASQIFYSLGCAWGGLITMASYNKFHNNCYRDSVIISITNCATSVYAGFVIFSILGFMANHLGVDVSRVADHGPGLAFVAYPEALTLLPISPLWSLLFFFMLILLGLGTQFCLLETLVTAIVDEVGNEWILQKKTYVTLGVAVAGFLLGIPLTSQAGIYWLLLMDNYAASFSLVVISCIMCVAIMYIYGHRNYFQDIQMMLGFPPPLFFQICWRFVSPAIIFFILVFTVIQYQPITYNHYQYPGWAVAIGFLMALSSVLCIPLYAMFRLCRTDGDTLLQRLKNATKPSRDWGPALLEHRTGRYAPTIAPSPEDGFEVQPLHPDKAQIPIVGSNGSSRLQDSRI
Test: Glycine uptake inhibition experiment ([3H] glycine uptake in T98G cells expressing GlyT1)
Type: cell-based
Conditions: not given
Method: Glycine Uptake Inhibition Experiment
A glycine uptake experiment was conducted in accordance with the method published in Neuron, 8, 927-935, 1992. In the experiment, T98G cells (glioma cells) expressing human type 1 glycine transporter (GlyT1) were used. The T98G cells were seeded in a 96-well plate at 2.0×10^4 cells/well and cultured overnight in a CO2 incubator. The test substance was dissolved in a 100% DMSO solution and then dissolved in a 10 mM HEPES buffer solution (pH 7.4) containing 150 mM sodium chloride, 1 mM calcium chloride, 5 mM potassium chloride, 1 mM magnesium chloride, 10 mM glucose and 0.2% bovine serum albumin. After removing the cell culture medium, the test substance was subjected to a 10-min pretreatment. Subsequently, the test substance and [^3H] glycine (final concentration: 250 nM) were added to the cells and reaction was performed at room temperature for 15 minutes. After the end of the reaction, the extracellular fluid was aspirated with a manifold to remove excess labeled glycine present outside the cells, and then the cells were lysed with a 0.5 M aqueous sodium hydroxide solution. The glycine content in the cells was determined by measuring the radioactivity in the cell lysate with a liquid scintillation counter. Glycine uptake in the presence of 10 μM ALX5407 was defined as non-specific uptake, and the value calculated by subtracting the amount of the non-specific uptake from the total uptake in the absence of 10 μM ALX5407 was defined as specific uptake. In addition, glycine uptake inhibitory activity (IC50 value) was calculated from an inhibition curve at the concentrations of each test substance ranging from 10^−9 to 10^−5 M. It should be noted that ALX5407 is an HCl salt of N-[(3R)-3-([1,1′-biphenyl]-4-yloxy)-3-(4-fluorophenyl)propyl]-N-methylglycine.

SMILES | IC50
O=C1N(Cc2ccc(F)c(Br)n2)c2cccc(C(O)C(F)F)c2C1(F)F (single isomer, unassigned) [Compound 274, 1-[(6-bromo-5-fluoropyridin-2-yl)methyl]-4-(2,2-difluoro-1-hydroxyethyl)-3,3-difluoro-1,3-dihydro-2H-indol-2-one] | 4.6 nM
C[C@H](O)c1cccc2c1C(F)(F)C(=O)N2Cc1cc(OC(F)F)ccn1 [Compound 245, 1-{[4-(difluoromethoxy)pyridin-2-yl]methyl}-3,3-difluoro-4-[(1S)-1-hydroxyethyl]-1,3-dihydro-2H-indol-2-one] | 110 nM
C[C@H](O)c1cccc2c1C(F)(F)C(=O)N2Cc1ncc(F)cc1C#N [Compound 233, 2-({3,3-difluoro-4-[(1S)-1-hydroxyethyl)-2-oxo-2,3-dihydro-1H-indol-1-yl}methyl)-5-fluoropyridine-3-carbonitrile] | 180 nM
C[C@H](O)c1cccc2c1C(F)(F)C(=O)N2Cc1cc(Cl)nc(C#N)c1 [Compound 187, 6-chloro-4-({3,3-difluoro-4-[(1S)-1-hydroxyethyl]-2-oxo-2,3-dihydro-1H-indol-1-yl}methyl)pyridine-2-carbonitrile] | 34 nM
C[C@H](O)c1cccc2c1C(F)(F)C(=O)N2Cc1ncccc1Cl [Compound 206, 1-[(3-chloropyridin-2-yl)methyl]-3,3-difluoro-4-[(1S)-1-hydroxyethyl]-1,3-dihydro-2H-indol-2-one] | 60 nM
C[C@H](O)c1cccc2c1C(F)(F)C(=O)N2Cc1ccc(F)c(C#N)n1 [Compound 236, 6-({3,3-difluoro-4-[(1S)-1-hydroxyethyl]-2-oxo-2,3-dihydro-1H-indol-1-yl}methyl)-3-fluoropyiidine-2-carbonitrile] | 4 nM
C[C@H](O)c1cccc2c1C(F)(F)C(=O)N2Cc1cc(Cl)c(F)cn1 [Compound 250] | 9.8 nM
C[C@H](O)c1cccc2c1C(F)(F)C(=O)N2Cc1cnc(Cl)nc1 [Compound 214, 1-[(2-chloropyrimidin-5-yl)methyl]-3,3-difluoro-4-[(1S)-1-hydroxyethyl]-1,3-dihydro-2H-indol-2-one] | 140 nM
O=C1N(Cc2cc(C(F)(F)F)ccn2)c2cccc(C(O)C(F)F)c2C1(F)F (single isomer, unassigned) [Compound 159, 4-(2,2-difluoro-1-hydroxyethyl)-3,3-difluoro-1-{[4-(trifluoromethyl)pyridin-2-yl]methyl}-1,3-dihydro-2H-indol-2-one] | 53 nM
COc1cc(CN2C(=O)C(F)(F)c3c([C@H](C)O)cccc32)ncc1Cl [Compound 232, 1-[(5-chloro-4-methoxypyridin-2-yl)methyl)-3,3-difluoro-4-[(1S)-1-hydroxyethyl]-1,3-dihydro-2H-indol-2-one] | 32 nM
C[C@H](O)c1cccc2c1C(F)(F)C(=O)N2Cc1ccnc(C2CC2)c1 [Compound 175, 1-[(2-cyclopropylpyridin-4-yl)methyl]-3,3-difluoro-4-[(1S)-1-hydroxyethyl]-1,3-dihydro-2H-indol-2-one] | 23 nM
O=C1N(Cc2cncc(C3CC3)c2)c2cccc(C(O)C(F)F)c2C1(F)F (single isomer, unassigned) [Compound 179, 1-[(5-cyclopropylpyridin-3-yl)methyl]-4-(2,2-difluoro-1-hydroxyethyl)-3,3-difluoro-1,3-dihydro-2H-indol-2-one] | 480 nM
O=C1N(Cc2cncc(C(F)(F)F)c2)c2cccc(C(O)C(F)F)c2C1(F)F (single isomer, unassigned) [Compound 186, 4-(2,2-difluoro-1-hydroxyethyl)-3,3-difluoro-1-{[5-(trifluoromethyl)pyridin-3-yl]methyl}-1,3-dihydro-2H-indol-2-one] | 64 nM
C[C@H](O)c1cccc2c1C(F)(F)C(=O)N2Cc1cnc(Cl)cc1Cl [Compound 223, 1-[(4,6-dichloropyridin-3-yl)methyl]-3,3-difluoro-4-[(1S)-1-hydroxyethyl]-1,3-dihydro-2H-indol-2-one] | 66 nM

Same assay, conditions: glycine uptake inhibition

SMILES | IC50
O=C1N(Cc2ccnc(F)c2)c2cccc([C@@H](O)C(F)(F)F)c2C1(F)F [Compound 149, 3,3-difluoro-1-[(2-fluoropyridin-4-yl)methyl]-4-[(1R)-2,2,2-trifluoro-1-hydroxyethyl]-1,3-dihydro-2H-indol-2-one] | 200 nM
CC(O)c1cccc2c1C(F)(F)C(=O)N2Cc1cccc(Cl)n1 (stereo not shown) [Compound 1, 1-[(6-chloropyridin-2-yl)methyl]-3,8-difluoro-4-(1-hydroxyethyl)-1,3-dihydro-2H-indol-2-one] | 15 nM
O=C1N(Cc2ccnc(Cl)c2)c2cccc(C(O)C(F)F)c2C1(F)F (single isomer, unassigned) [Compound 35] | 280 nM
O=C1N(Cc2cnc3ccccc3c2)c2cccc(C(O)C(F)F)c2C1(F)F (single isomer, unassigned) [Compound 143, 4-(2,2-difluoro-1-hydroxyethyl)-3,3-difluoro-1-(quinolin-3-ylmethyl)-1,3-dihydro-2H-indol-2-one] | 48 nM
Cc1nc2ccccc2nc1CN1C(=O)C(F)(F)c2c([C@H](C)O)cccc21 [Compound 79, 3,3-difluoro-4-[(1S)-1-hydroxyethyl]-1-[(3-methylquinoxalin-2-yl)methyl]-1,3-dihydro-2H-indol-2-one] | 31 nM
COc1cccc(CN2C(=O)C(F)(F)c3c([C@H](C)O)cccc32)n1 [Compound 68, 3,3-difluoro-4-[(1S)-1-hydroxyethyl]-1-[(6-methoxypyridin-2-yl)methyl]-1,3-dihydro-2H-indol-2-one] | 76 nM
N#Cc1cc(CN2C(=O)C(F)(F)c3c(C(O)C(F)(F)F)cccc32)ccn1 (stereo not shown) [Compound 14, 4-{[3,3-difluoro-2-oxo-4-(2,2,2-trifluoro-1-hydroxyethyl)-2,3-dihydro-1H-indol-1-yl]methyl}pyridine-2-carbonitrile] | 120 nM
C[C@H](O)c1cccc2c1C(F)(F)C(=O)N2Cc1nc2cnccc2c(=O)n1C [Compound 111, 2-({3,3-difluoro-4-[(1s)-1-hydroxyethyl]-2-oxo-2,3-dihydro-1H-indol-1-yl}methyl)-3-methylpyrido[3,4-d]pyrimidin-4(3H)-one] | 130 nM
O=C1N(Cc2cncc(Cl)c2)c2ccc(F)c(C(O)C(F)F)c2C1(F)F (single isomer, unassigned) [Compound 135, 1-[(5-chloropyridin-3-yl)methyl]-4-(2,2-difluoro-1-hydroxyethyl)-3,3,5-trifluoro-1,3-dihydro-2H-indol-2-one] | 57 nM
N#Cc1cc(CN2C(=O)C(F)(F)c3c(C(O)C(F)F)cccc32)ccn1 (single isomer, unassigned) [Compound 109, 4-{[4-(2,2-difluoro-1-hydroxyethyl]-3,3-difluoro-2-oxo-2,3-dihydro-1H-indol-1-yl]methyl}pyridine-2-carbonitrile] | 88 nM
C[C@H](O)c1cccc2c1C(F)(F)C(=O)N2Cc1ccc(Cl)cn1 [Compound 103, 1-[(5-chloropyridin-2-yl)methyl]-3,3-difluoro-4-[(1S)-1-hydroxyethyl]-1,3-dihydro-2H-indol-2-one] | 44 nM
C[C@H](O)c1cccc2c1C(F)(F)C(=O)N2Cc1cc2ccoc2cn1 [Compound 125, 3,3-difluoro-1-(furo[2,3-c]pyridin-5-ylmethyl)-4-[(1S)-1-hydroxyethyl]-1,3-dihydro-2H-indol-2-one] | 130 nM
C[C@H](O)c1cccc2c1C(F)(F)C(=O)N2Cc1cc2ccccc2c(=O)n1C [Compound 100, 3-({3,3-difluoro-4-[(1S)-1-hydroxyethyl]-2-oxo-2,3-dihydro-1H-indol-1-yl}methyl)-2-methylisoquinolin-1(2H)-one] | 29 nM

Same assay, conditions: table section whose head prints (μm)

SMILES | IC50
O=C1N(Cc2cnccc2Cl)c2cccc(C(O)C(F)F)c2C1(F)F (single isomer, unassigned) [Compound 260, 1-[(4-chloropyridin-3-yl)mettiyl]-4-(2,2-difluoro-1-hydroxyethyl)-3,3-difluoro-1,3-dihydro-2H-indol-2-one] | 1500 nM
